Results from PMC5668434, “Modulation of telomere protection by the PI3K/AKT pathway” (Nature Communications, 2017).

Tests used:
mTOR (FRAP1) = molecular target: T1, mTOR (FRAP1) (Homo sapiens, UniProt P42345); test: mTOR biochemical assay (LanthaScreen)
T1 construct: purchased ThermoFisher PV4753

[1] = test system: TRF1 foci in CHA-9.3 mouse lung tumor cell line; test: TRF1 foci immunofluorescence in CHA-9.3 cells; type: cell-based; details: for Inhibition of TRF1 foci (in words): 10 μM (GSK-2126458 1.0 μM), 24 h, CHA-9.3; for TRF1 levels as compared to bortezomib/DMSO-treated control cells: 10 μM plus bortezomib 50 nM, CHA 9-3
[2] = test system: TRF1 protein in CHA 9-3 nuclear extracts; test: Western blot of nuclear TRF1 in CHA 9-3 cells; type: cell-based, mouse; details: 10 μM
Experimental: Blots were incubated with the primary antibodies anti-TRF1 1:500 (home-made monoclonal Rat, CNIO; TRF-78, ABCAM, ab10579) and with anti-SMC1 1:2000 (Bethyl Laboratories #A300-055A) as loading control. For nuclear protein preparation, the Nuclear/Cytosol Fractionation Kit (K266-100, BioVision) was used according to the manufactures protocol.

AKT2 = molecular target: T2, AKT2 (Homo sapiens, UniProt P31751); test: ProQinase kinase panel; type: biochemical; details: read-out: Inh (%) at 1µM, AKT2
T2 construct: purchased ProQinase
Experimental: (§1) Supplementary Table 1: Kinase selectivity profile of ETP-47037 and ETP-47228 at 1 µM. Selectivity against protein kinases was determined from evaluation of compounds at 1µM in ProQinase’s 24 selected panel that represents the ACG, STE, TKL, TK, CMGC CAMK and CK1 kinase families.

B-RAF-V600E = molecular target: T3, B-RAF-V600E (Homo sapiens, UniProt P15056, V600E); test: ProQinase kinase panel; type: biochemical; details: read-out: Inh (%) at 1µM, B-RAF-V600E
T3 construct: purchased ProQinase
Experimental: as §1

CDK8-CycC = molecular target: T4, CDK8-CycC (Homo sapiens, UniProt P49336); test: ProQinase kinase panel; type: biochemical; details: read-out: Inh (%) at 1µM, CDK8-CycC
T4 construct: purchased ProQinase
Experimental: as §1

CHK1 = molecular target: T5, CHK1 (Homo sapiens, UniProt O14757); test: ProQinase kinase panel; type: biochemical; details: read-out: Inh (%) at 1µM, CHK1
T5 construct: purchased ProQinase
Experimental: as §1

CHK2 = molecular target: T6, CHK2 (Homo sapiens, UniProt O96017); test: ProQinase kinase panel; type: biochemical; details: read-out: Inh (%) at 1µM, CHK2
T6 construct: purchased ProQinase
Experimental: as §1

CK1-alpha1 = molecular target: T7, CK1-alpha1 (Homo sapiens, UniProt P48729); test: ProQinase kinase panel; type: biochemical; details: read-out: Inh (%) at 1µM, CK1-alpha1
T7 construct: purchased ProQinase
Experimental: as §1

DYRK1A = molecular target: T8, DYRK1A (Homo sapiens, UniProt Q13627); test: ProQinase kinase panel; type: biochemical; details: read-out: Inh (%) at 1µM, DYRK1A
T8 construct: purchased ProQinase
Experimental: as §1

EGF-R = molecular target: T9, EGF-R (Homo sapiens, UniProt P00533); test: ProQinase kinase panel; type: biochemical; details: read-out: Inh (%) at 1µM, EGF-R
T9 construct: purchased ProQinase
Experimental: as §1

FAK = molecular target: T10, FAK (Homo sapiens, UniProt Q05397); test: ProQinase kinase panel; type: biochemical; details: read-out: Inh (%) at 1µM, FAK
T10 construct: purchased ProQinase
Experimental: as §1

FGF-R1 = molecular target: T11, FGF-R1 (Homo sapiens, UniProt P11362); test: ProQinase kinase panel; type: biochemical; details: read-out: Inh (%) at 1µM, FGF-R1
T11 construct: purchased ProQinase
Experimental: as §1

IGF1-R = molecular target: T12, IGF1-R (Homo sapiens, UniProt P08069); test: ProQinase kinase panel; type: biochemical; details: read-out: Inh (%) at 1µM, IGF1-R
T12 construct: purchased ProQinase
Experimental: as §1

IKK-beta = molecular target: T13, IKK-beta (Homo sapiens, UniProt O14920); test: ProQinase kinase panel; type: biochemical; details: read-out: Inh (%) at 1µM, IKK-beta
T13 construct: purchased ProQinase
Experimental: as §1

INS-R = molecular target: T14, INS-R (Homo sapiens, UniProt P06213); test: ProQinase kinase panel; type: biochemical; details: read-out: Inh (%) at 1µM, INS-R
T14 construct: purchased ProQinase
Experimental: as §1

JAK2 = molecular target: T15, JAK2 (Homo sapiens, UniProt O60674); test: ProQinase kinase panel; type: biochemical; details: read-out: Inh (%) at 1µM, JAK2
T15 construct: purchased ProQinase
Experimental: as §1

KIT = molecular target: T16, KIT (Homo sapiens, UniProt P10721); test: ProQinase kinase panel; type: biochemical; details: read-out: Inh (%) at 1µM, KIT
T16 construct: purchased ProQinase
Experimental: as §1

MEK1 = molecular target: T17, MEK1 (Homo sapiens, UniProt Q02750); test: ProQinase kinase panel; type: biochemical; details: read-out: Inh (%) at 1µM, MEK1
T17 construct: purchased ProQinase
Experimental: as §1

MET = molecular target: T18, MET (Homo sapiens, UniProt P08581); test: ProQinase kinase panel; type: biochemical; details: read-out: Inh (%) at 1µM, MET
T18 construct: purchased ProQinase
Experimental: as §1

PAK1 = molecular target: T19, PAK1 (Homo sapiens, UniProt Q13153); test: ProQinase kinase panel; type: biochemical; details: read-out: Inh (%) at 1µM, PAK1
T19 construct: purchased ProQinase
Experimental: as §1

PDGFR-alpha = molecular target: T20, PDGFR-alpha (Homo sapiens, UniProt P16234); test: ProQinase kinase panel; type: biochemical; details: read-out: Inh (%) at 1µM, PDGFR-alpha
T20 construct: purchased ProQinase
Experimental: as §1

PDK1 = molecular target: T21, PDK1 (Homo sapiens, UniProt O15530); test: ProQinase kinase panel; type: biochemical; details: read-out: Inh (%) at 1µM, PDK1
T21 construct: purchased ProQinase
Experimental: as §1

RPS6KA1 = molecular target: T22, RPS6KA1 (Homo sapiens, UniProt Q15418); test: ProQinase kinase panel; type: biochemical; details: read-out: Inh (%) at 1µM, RPS6KA1
T22 construct: purchased ProQinase
Experimental: as §1

SGK1 = molecular target: T23, SGK1 (Homo sapiens, UniProt O00141); test: ProQinase kinase panel; type: biochemical; details: read-out: Inh (%) at 1µM, SGK1
T23 construct: purchased ProQinase
Experimental: as §1

SRC = molecular target: T24, SRC (Homo sapiens, UniProt P12931); test: ProQinase kinase panel; type: biochemical; details: read-out: Inh (%) at 1µM, SRC
T24 construct: purchased ProQinase
Experimental: as §1

VEGF-R2 = molecular target: T25, VEGF-R2 (Homo sapiens, UniProt P35968); test: ProQinase kinase panel; type: biochemical; details: read-out: Inh (%) at 1µM, VEGF-R2
T25 construct: purchased ProQinase
Experimental: as §1

T11 sequence (P11362 22-822): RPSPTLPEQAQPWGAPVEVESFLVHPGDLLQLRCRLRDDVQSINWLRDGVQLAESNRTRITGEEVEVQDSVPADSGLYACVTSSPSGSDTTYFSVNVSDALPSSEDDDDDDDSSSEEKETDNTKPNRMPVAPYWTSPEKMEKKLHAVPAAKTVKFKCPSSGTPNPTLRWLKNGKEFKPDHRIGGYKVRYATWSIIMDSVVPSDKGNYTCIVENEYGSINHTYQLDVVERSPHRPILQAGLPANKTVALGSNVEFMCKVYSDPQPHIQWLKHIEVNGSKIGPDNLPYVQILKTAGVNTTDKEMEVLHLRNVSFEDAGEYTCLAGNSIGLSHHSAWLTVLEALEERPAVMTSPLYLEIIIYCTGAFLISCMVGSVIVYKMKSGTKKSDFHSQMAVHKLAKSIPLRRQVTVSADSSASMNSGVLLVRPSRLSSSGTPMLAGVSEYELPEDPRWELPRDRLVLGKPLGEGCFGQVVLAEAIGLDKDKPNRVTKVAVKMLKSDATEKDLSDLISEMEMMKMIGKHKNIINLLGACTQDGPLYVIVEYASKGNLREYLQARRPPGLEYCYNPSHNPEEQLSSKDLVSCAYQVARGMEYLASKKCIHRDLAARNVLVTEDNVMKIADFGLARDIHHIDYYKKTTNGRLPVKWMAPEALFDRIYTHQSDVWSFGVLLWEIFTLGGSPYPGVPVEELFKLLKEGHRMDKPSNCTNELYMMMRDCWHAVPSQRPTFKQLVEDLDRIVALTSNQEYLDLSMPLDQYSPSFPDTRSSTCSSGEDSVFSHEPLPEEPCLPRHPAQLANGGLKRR
T13 sequence (O14920 whole entry): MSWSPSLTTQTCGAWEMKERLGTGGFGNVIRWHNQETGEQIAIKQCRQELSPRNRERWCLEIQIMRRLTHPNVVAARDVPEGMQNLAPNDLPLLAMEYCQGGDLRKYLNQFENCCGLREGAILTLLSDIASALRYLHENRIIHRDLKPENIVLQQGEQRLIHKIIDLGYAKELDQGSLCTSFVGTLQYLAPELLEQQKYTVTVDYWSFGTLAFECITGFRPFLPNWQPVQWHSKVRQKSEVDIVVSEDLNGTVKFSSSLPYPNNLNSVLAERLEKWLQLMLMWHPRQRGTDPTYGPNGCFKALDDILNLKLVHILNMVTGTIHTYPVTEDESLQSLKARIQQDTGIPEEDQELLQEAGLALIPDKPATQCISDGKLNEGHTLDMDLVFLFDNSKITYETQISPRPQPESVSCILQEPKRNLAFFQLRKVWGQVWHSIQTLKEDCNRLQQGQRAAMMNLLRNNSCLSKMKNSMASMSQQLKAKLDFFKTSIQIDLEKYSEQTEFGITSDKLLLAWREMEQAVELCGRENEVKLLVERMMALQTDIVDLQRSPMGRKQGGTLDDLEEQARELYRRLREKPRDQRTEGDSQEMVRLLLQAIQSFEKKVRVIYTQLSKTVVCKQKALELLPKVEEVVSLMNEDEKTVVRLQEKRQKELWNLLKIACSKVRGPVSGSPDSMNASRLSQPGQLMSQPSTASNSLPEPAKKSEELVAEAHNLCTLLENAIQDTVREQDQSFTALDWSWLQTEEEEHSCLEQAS
T7 sequence (P48729 whole entry): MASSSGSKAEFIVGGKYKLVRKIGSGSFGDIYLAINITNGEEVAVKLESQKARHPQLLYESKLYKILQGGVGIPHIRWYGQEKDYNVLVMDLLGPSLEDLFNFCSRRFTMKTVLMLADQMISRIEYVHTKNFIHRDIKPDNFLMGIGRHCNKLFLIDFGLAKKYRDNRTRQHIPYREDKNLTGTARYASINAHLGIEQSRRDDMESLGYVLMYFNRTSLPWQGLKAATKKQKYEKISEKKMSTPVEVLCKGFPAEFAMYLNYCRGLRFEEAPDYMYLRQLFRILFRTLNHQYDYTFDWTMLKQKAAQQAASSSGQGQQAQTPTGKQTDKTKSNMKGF
T9 sequence (P00533 25-1210): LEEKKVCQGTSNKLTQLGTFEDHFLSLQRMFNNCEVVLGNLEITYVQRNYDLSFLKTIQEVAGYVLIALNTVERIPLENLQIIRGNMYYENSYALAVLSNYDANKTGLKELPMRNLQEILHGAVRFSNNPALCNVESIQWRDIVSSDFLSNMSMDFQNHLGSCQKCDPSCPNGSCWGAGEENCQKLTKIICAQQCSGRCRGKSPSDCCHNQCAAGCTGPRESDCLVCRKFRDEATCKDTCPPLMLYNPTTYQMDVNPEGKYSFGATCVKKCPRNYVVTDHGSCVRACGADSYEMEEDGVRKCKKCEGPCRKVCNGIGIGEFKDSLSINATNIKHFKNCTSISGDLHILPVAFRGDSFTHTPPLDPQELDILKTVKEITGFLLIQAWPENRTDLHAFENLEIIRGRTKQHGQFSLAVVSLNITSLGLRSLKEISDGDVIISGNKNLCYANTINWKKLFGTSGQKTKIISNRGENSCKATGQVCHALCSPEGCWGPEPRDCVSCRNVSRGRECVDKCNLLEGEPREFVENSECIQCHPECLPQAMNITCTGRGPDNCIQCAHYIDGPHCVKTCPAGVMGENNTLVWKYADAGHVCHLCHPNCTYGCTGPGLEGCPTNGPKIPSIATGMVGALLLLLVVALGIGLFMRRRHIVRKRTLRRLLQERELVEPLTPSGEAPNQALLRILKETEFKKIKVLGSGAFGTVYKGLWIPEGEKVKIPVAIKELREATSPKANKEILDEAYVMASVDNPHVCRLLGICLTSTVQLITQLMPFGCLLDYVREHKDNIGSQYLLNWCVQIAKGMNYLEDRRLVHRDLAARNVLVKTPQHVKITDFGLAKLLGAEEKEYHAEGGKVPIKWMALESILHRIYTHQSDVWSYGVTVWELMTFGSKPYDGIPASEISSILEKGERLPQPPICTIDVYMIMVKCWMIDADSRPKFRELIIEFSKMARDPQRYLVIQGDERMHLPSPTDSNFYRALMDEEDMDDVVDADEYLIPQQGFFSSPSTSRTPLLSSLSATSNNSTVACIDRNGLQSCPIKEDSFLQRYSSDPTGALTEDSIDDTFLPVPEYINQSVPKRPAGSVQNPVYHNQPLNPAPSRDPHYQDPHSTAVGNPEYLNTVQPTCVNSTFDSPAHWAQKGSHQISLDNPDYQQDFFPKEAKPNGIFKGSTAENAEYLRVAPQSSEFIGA
T25 sequence (P35968 20-1356): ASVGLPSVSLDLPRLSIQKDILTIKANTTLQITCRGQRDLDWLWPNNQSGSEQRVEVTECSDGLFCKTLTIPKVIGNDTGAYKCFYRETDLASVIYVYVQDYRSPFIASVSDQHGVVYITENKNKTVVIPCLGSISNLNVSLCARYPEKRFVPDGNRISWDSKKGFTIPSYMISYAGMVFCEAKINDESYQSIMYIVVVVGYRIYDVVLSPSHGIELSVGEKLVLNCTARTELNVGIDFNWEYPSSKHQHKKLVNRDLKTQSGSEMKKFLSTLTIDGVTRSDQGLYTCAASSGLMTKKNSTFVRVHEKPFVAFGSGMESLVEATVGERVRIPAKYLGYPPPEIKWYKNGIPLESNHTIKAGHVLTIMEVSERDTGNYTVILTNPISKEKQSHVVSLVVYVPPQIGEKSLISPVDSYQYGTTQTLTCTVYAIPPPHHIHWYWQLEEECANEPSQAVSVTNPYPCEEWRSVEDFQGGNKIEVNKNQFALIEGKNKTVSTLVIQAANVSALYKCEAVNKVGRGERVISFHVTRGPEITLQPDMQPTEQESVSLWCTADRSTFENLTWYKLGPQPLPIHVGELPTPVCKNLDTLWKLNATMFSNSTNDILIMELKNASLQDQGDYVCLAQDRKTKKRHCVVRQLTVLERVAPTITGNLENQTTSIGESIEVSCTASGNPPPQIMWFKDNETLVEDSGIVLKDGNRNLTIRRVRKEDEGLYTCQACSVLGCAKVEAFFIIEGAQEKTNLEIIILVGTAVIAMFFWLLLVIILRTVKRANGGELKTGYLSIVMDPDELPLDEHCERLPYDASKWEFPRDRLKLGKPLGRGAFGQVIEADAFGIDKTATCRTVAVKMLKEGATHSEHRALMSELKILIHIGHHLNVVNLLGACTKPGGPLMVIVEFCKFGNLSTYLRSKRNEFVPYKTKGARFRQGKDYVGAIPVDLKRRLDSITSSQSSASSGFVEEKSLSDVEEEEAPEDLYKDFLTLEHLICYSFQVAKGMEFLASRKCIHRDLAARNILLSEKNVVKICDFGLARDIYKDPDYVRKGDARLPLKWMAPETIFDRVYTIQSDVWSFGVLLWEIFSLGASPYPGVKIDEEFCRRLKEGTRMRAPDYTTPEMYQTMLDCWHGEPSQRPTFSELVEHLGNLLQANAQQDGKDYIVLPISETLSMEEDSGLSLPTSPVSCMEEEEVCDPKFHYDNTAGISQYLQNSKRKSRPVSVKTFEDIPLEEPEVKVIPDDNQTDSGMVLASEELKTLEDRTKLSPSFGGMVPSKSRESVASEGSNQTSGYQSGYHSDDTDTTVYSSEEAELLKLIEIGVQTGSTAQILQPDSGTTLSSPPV
T21 sequence (O15530 whole entry): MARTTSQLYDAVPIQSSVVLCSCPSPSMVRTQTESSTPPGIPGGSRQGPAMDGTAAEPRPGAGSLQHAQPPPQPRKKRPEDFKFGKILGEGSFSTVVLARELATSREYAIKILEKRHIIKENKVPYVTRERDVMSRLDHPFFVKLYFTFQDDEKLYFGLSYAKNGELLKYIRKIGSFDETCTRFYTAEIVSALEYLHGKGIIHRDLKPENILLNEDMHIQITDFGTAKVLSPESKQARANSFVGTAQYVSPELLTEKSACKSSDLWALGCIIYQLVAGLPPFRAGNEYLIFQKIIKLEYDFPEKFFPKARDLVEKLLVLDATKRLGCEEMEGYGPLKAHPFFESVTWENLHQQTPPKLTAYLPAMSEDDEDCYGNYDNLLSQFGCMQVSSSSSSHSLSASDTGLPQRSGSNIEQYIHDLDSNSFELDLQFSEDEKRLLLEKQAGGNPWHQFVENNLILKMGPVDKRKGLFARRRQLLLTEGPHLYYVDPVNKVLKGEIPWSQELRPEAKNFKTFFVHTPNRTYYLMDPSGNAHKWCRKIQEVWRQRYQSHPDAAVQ

SMILES	Inhibition of TRF1 foci (in words) [1]	TRF1 levels as compared to bortezomib/DMSO-treated control cells [1]	TRF1 protein levels in nuclear extracts [2]	inhibition at 1 µM (AKT2)	inhibition at 1 µM (B-RAF-V600E)	inhibition at 1 µM (CDK8-CycC)	inhibition at 1 µM (CHK1)	inhibition at 1 µM (CHK2)	inhibition at 1 µM (CK1-alpha1)	inhibition at 1 µM (DYRK1A)	inhibition at 1 µM (EGF-R)	inhibition at 1 µM (FAK)	inhibition at 1 µM (FGF-R1)	inhibition at 1 µM (IGF1-R)	inhibition at 1 µM (IKK-beta)	inhibition at 1 µM (INS-R)	inhibition at 1 µM (JAK2)	inhibition at 1 µM (KIT)	inhibition at 1 µM (MEK1)	inhibition at 1 µM (MET)	other results
CS(=O)(=O)N1CCN(Cc2cc3c(N4CCOCC4)nc(-c4cnc(N)nc4)cn3n2)CC1 [ETP-47037]	efficient inhibition of TRF1 foci	significantly lower	significantly decreased	-7.5%	6.5%	-4.5%	15.5%	0.5%	-6%	-1%	22.5%	14.5%	6.5%	2%	1%	5%	2%	9%	-15%	3%	IC50 (mTOR (FRAP1); as given in the text): 1700 nM; inhibition at 1 µM (PAK1): -3.5%; inhibition at 1 µM (PDGFR-alpha): 4%; inhibition at 1 µM (PDK1): 7%; inhibition at 1 µM (RPS6KA1): -4.5%; inhibition at 1 µM (SGK1): 0.5%; inhibition at 1 µM (SRC): 26%; inhibition at 1 µM (VEGF-R2): 21.5%
Cc1cnc2c(N3CCOCC3)nc(-c3ccc(NC(=O)Nc4ccc(C(=O)N5CCN(C)CC5)cc4)cc3)cn12 [ETP-47228]	efficient inhibition of TRF1 foci	significantly lower	significantly decreased	-8%	11.5%	1%	-11.5%	3%	2%	4%	0.5%	-7.5%	-3.5%	-19%	-10%	-3%	4%	6.5%	-3%	3%	IC50 (mTOR (FRAP1); internal data): 443 nM; inhibition at 1 µM (PAK1): 1%; inhibition at 1 µM (PDGFR-alpha): 1%; inhibition at 1 µM (PDK1): -9%; inhibition at 1 µM (RPS6KA1): -1.5%; inhibition at 1 µM (SGK1): 0.5%; inhibition at 1 µM (SRC): 5%; inhibition at 1 µM (VEGF-R2): -3%
